Data on 22 compounds can be found in patent US7932262B2 (Novartis AG, priority 2006, dated 2011).

Broadly, the IC50 is the concentration that gives 50% inhibition.

Assay [1] addresses T1, PDK1 kinase (Homo sapiens, UniProt O15530).
T1 sequence (O15530 1-556): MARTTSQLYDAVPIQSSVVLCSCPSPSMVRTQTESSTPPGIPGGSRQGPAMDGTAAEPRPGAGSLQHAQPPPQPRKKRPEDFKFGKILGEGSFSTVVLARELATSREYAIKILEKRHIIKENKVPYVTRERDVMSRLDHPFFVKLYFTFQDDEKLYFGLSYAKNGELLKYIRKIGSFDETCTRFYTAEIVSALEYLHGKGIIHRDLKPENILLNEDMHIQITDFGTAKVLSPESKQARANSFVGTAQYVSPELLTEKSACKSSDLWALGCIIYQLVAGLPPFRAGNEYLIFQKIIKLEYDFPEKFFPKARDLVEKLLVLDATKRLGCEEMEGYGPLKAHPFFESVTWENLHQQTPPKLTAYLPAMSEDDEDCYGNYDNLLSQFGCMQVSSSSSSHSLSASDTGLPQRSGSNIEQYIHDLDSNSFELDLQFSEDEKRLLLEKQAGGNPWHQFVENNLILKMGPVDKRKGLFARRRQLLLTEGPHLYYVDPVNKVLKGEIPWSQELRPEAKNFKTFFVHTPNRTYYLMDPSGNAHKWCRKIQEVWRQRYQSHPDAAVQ
The assay can be described thus: PDK1 Kinase Alpha Screen Assay. The format is biochemical. The conditions noted are these: read-out: PDK1 IC50. An outline of the steps:
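Compound in DMSO added to PDK1-4 peptide; PDK1/ATP mix starts reaction (final 50 nM peptide, 10 uM ATP). Runs 3-18 hours, stopped with 90 mM EDTA buffer. Antibody/bead mix added, developed overnight at room temperature, then AlphaScreen signal read.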

The subject of assay [2] is A2780 cells. The assay can be described thus: Cell Proliferation Assay (Cell Titer Glo), A2780. It is filed as cell-based. The following applies: Homo sapiens, read-out: CPEC50 A2780. Put shortly:
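Cells seeded at 1000/well, allowed to adhere 3-5 h, then exposed to DMSO-dissolved compounds for 3 days at 37° C., 5% CO2. Medium replaced before Cell Titer Glo addition; luminescence read after 10 min.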
(ATP-based viability assays read luminescence as a measure of living cells.)

Assay [3] relates to PC-3 cells. Description: Cell Proliferation Assay (Cell Titer Glo), PC-3 cell line. It is filed as cell-based. The following applies: Homo sapiens, read-out: CPEC50 PC3. An outline of the steps:
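PC-3 cells, 1000 cells/well, left to adhere 3-5 h, then exposed for 3 days at 37° C to compounds as 1:3 serial dilutions from 500× DMSO stocks diluted in growth medium. Medium then replaced with fresh medium and viability read by Cell Titer Glo luminescence.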

[4] abbreviates: Cell Proliferation Assay, A2780.
[5] abbreviates: PC-3, Cell Proliferation Assay, PC3.
[6] abbreviates: cell proliferation, A2780 cells.
[7] abbreviates: PC-3, cell proliferation, PC3 cells.

Like-named read-outs stand apart in the source and are kept apart here.

As to `Cc1cc2cnc(Nc3ccc(N4CCOCC4)cc3)nc2cc1OC1CCNCC1` [Compound 647, 6-methyl-N-(4-morpholinophenyl)-7-(piperidin-4-yloxy)quinazolin-2-amine], the IC50 in assay [1] (PDK1 Kinase Alpha Screen Assay) is less than 5 µM. Also, the EC50 in assay [2] (setting [4]) and in assay [3] (setting [5]) was less than 5 µM throughout.
As for `Cc1cc2cnc(Nc3ccc(C(=O)N4CCOCC4)cc3)nc2cc1OC1CCNCC1` [Compound 648, (4-(6-methyl-7-(piperidin-4-yloxy)quinazolin-2-ylamino)phenyl)(morpholino)methanone], the 50% inhibitory concentration (IC50) in assay [1] (PDK1 Kinase Alpha Screen Assay) was less than 5 µM. For the same compound, the EC50 in assay [2] (setting [4]) and in assay [3] (setting [5]) was less than 5 µM throughout.
`O=C(c1ccc(Nc2ncc3cc(-c4nccs4)c(OC4CCNCC4)cc3n2)cc1)N1CCOCC1` [Compound 649, morpholino(4-(7-(piperidin-4-yloxy)-6-(thiazol-2-yl)quinazolin-2-ylamino)phenyl)methanone]: the IC50 in assay [1] (PDK1 Kinase Alpha Screen Assay) was less than 5 µM. The EC50 in assay [2] (setting [4]) and in assay [3] (setting [5]) was less than 5 µM in each case.
On to `CN1CCC(Oc2ccc3cnc(Nc4ccc(S(=O)(=O)N5CCOCC5)cc4)nc3c2)CC1` [Compound 869, 7-(1-methylpiperidin-4-yloxy)-N-(4-(morpholinosulfonyl)phenyl)quinazolin-2-amine], for which, in assay [1] (PDK1 Kinase Alpha Screen Assay), the half-inhibitory concentration (IC50) is less than 5 µM. In addition, the EC50 in assay [2] (setting [6]) and in assay [3] (setting [7]) was less than 5 µM in each case.
For the compound `NS(=O)(=O)c1ccc(Nc2ncc3cc(F)cc(-c4ccc5c(c4)CCNC5=O)c3n2)cc1` [Compound 884, 4-(6-fluoro-8-(1-oxo-1,2,3,4-tetrahydroisoquinolin-6-yl)quinazolin-2-ylamino)benzenesulfonamide], the IC50 in assay [1] (PDK1 Kinase Alpha Screen Assay) is less than 5 µM. In addition, the EC50 in assay [2] (setting [6]) and in assay [3] (setting [7]) was less than 5 µM each time.
As for `Nc1ccc(-c2cc(F)cc3cnc(Nc4ccc(S(N)(=O)=O)cc4)nc23)cn1` [Compound 885, 4-(8-(6-aminopyridin-3-yl)-6-fluoroquinazolin-2-ylamino)benzenesulfonamide], the concentration for half-maximal inhibition (IC50) in assay [1] (PDK1 Kinase Alpha Screen Assay) is less than 5 µM. Also, the EC50 in assay [2] (setting [6]) and in assay [3] (setting [7]) was less than 5 µM throughout.
Regarding `CN1CCN(c2ccc(-c3cc(F)cc4cnc(Nc5ccc(S(N)(=O)=O)cc5)nc34)cn2)CC1` [Compound 888, 4-(6-fluoro-8-(6-(4-methylpiperazin-1-yl)pyridin-3-yl)quinazolin-2-ylamino)benzenesulfonamide], in assay [1] (PDK1 Kinase Alpha Screen Assay), the IC50 is less than 5 µM. The EC50 in assay [2] (setting [6]) and in assay [3] (setting [7]) was less than 5 µM in each case.
For the compound `NS(=O)(=O)c1ccc(Nc2ncc3cc(F)cc(-c4ccc(NCCN5CCCC5)nc4)c3n2)cc1` [Compound 892, 4-(6-fluoro-8-(6-(2-(pyrroidin-1-yl)ethylamino)pyridin-3-yl)quinazolin-2-ylamino)benzenesulfonamide], the IC50 in assay [1] (PDK1 Kinase Alpha Screen Assay) is less than 5 µM. Also, the EC50 in assay [2] (setting [6]) and in assay [3] (setting [7]) was less than 5 µM in each case.
For the compound `COCCNc1ccc(-c2cc(F)cc3cnc(Nc4ccc(S(N)(=O)=O)cc4)nc23)cn1` [Compound 893, 4-(6-fluoro-8-(6-(2-methoxyethylamino)pyridin-3-yl)quinazolin-2-ylamino)benzenesulfonamide], the IC50 in assay [1] (PDK1 Kinase Alpha Screen Assay) was less than 5 µM. In addition, the EC50 in assay [2] (setting [6]) and in assay [3] (setting [7]) was less than 5 µM in each case.
With `NS(=O)(=O)c1ccc(Nc2ncc3cc(F)cc(-c4ccc(N5CCOCC5)nc4)c3n2)cc1` [Compound 894, 4-(6-fluoro-8-(6-morpholinopyridin-3-yl)quinazolin-2-ylamino)benzenesulfonamide], the IC50 in assay [1] (PDK1 Kinase Alpha Screen Assay) was less than 5 µM. Moreover, the EC50 in assay [2] (setting [6]) and in assay [3] (setting [7]) was less than 5 µM in each case.
For `Cn1cc(-c2ccc3cnc(Nc4ccc(S(N)(=O)=O)cc4)nc3c2-c2ccccc2)cn1` [Compound 904, 4-(7-(1-methyl-1H-pyrazol-4-yl)-8-phenylquinazolin-2-ylamino)benzenesulfonamide], the IC50 in assay [1] (PDK1 Kinase Alpha Screen Assay) was less than 5 µM. Besides, the EC50 in assay [2] (setting [6]) and in assay [3] (setting [7]) was less than 5 µM each time.
Turning to `Cn1cc(-c2ccc3cnc(Nc4ccc(S(N)(=O)=O)cc4)nc3c2-c2ccc(N)nc2)cn1` [Compound 905, 4-(8-(6-aminopyridin-3-yl)-7-(1-methyl-1H-pyrazol-4-yl)quinazolin-2-ylamino)benzenesulfonamide], the IC50 in assay [1] (PDK1 Kinase Alpha Screen Assay) was less than 5 µM. Besides, the EC50 in assay [2] (setting [6]) and in assay [3] (setting [7]) was less than 5 µM in each case.
For `CN1CCN(C(=O)c2ccc(-c3c(-c4cnn(C)c4)ccc4cnc(Nc5ccc(S(N)(=O)=O)cc5)nc34)cc2)CC1` [Compound 906, 4-(7-(1-methyl-1H-pyrazol-4-yl)-8-(4-(4-methylpiperazine-1-carbonyl)phenyl)quinazolin-2-ylamino)benzenesulfonamide], in assay [1] (PDK1 Kinase Alpha Screen Assay), the IC50 is less than 5 µM. Further, the EC50 in assay [2] (setting [6]) and in assay [3] (setting [7]) was less than 5 µM in each case.
As for `Cn1cc(-c2ccc3cnc(Nc4ccc(S(N)(=O)=O)cc4)nc3c2-c2ccc(F)nc2)cn1` [Compound 907, 4-(8-(6-fluoropyridin-3-yl)-7-(1-methyl-1H-pyrazol-4-yl)quinazolin-2-ylamino)benzenesulfonamide], in assay [1] (PDK1 Kinase Alpha Screen Assay), the IC50 is less than 5 µM. Also, the EC50 in assay [2] (setting [6]) and in assay [3] (setting [7]) was less than 5 µM in each case.
`COCCNc1ccc(-c2c(-c3cnn(C)c3)ccc3cnc(Nc4ccc(S(N)(=O)=O)cc4)nc23)cn1` [Compound 908, 4-(8-(6-(2-methoxyethylamino)pyridin-3-yl)-7-(1-methyl-1H-pyrazol-4-yl)quinazolin-2-ylamino)benzenesulfonamide]: the IC50 in assay [1] (PDK1 Kinase Alpha Screen Assay) was less than 5 µM. In addition, the EC50 in assay [2] (setting [6]) and in assay [3] (setting [7]) was less than 5 µM throughout.
Consider `Cn1cc(-c2ccc3cnc(Nc4ccc(S(N)(=O)=O)cc4)nc3c2-c2ccc(N3CCOCC3)nc2)cn1` [Compound 909, 4-(7-(1-methyl-1H-pyrazol-4-yl)-8-(6-morpholinopyridin-3-yl)quinazolin-2-ylamino)benzenesulfonamide], for which the IC50 in assay [1] (PDK1 Kinase Alpha Screen Assay) is less than 5 µM. In addition, the EC50 in assay [2] (setting [6]) and in assay [3] (setting [7]) was less than 5 µM throughout.
On to `CN1CCN(c2ccc(-c3c(-c4cnn(C)c4)ccc4cnc(Nc5ccc(S(N)(=O)=O)cc5)nc34)cn2)CC1` [Compound 910, 4-(7-(1-methyl-1H-pyrazol-4-yl)-8-(6-(4-methylpiperazin-1-yl)pyridin-3-yl)quinazolin-2-ylamino)benzenesulfonamide], for which the IC50 in assay [1] (PDK1 Kinase Alpha Screen Assay) is less than 5 µM. Also, the EC50 in assay [2] (setting [6]) and in assay [3] (setting [7]) was less than 5 µM throughout.
As to `NS(=O)(=O)c1ccc(Nc2ncc3ccc(-c4ccccc4)c(OC4CCNCC4)c3n2)cc1` [Compound 911, 4-(7-phenyl-8-(piperidin-4-yloxy)quinazolin-2-ylamino)benzenesulfonamide], the IC50 in assay [1] (PDK1 Kinase Alpha Screen Assay) was less than 5 µM. The EC50 in assay [2] (setting [6]) and in assay [3] (setting [7]) was less than 5 µM each time.
On to `NS(=O)(=O)c1ccc(Nc2ncc3cc(F)cc(-c4ccc(N5CCS(=O)(=O)CC5)nc4)c3n2)cc1` [Compound 913], for which the IC50 in assay [1] (PDK1 Kinase Alpha Screen Assay) is less than 5 µM. Besides, the EC50 in assay [2] (setting [6]) and in assay [3] (setting [7]) was less than 5 µM throughout.
`CC(C)Nc1ccc(-c2cc(F)cc3cnc(Nc4ccc(S(N)(=O)=O)cc4)nc23)cn1` [Compound 914, 4-(6-fluoro-8-(6-(isopropylamino)pyridin-3-yl)quinazolin-2-ylamino)benzenesulfonamide]: the 50% inhibitory concentration (IC50) in assay [1] (PDK1 Kinase Alpha Screen Assay) was less than 5 µM. In addition, the EC50 in assay [2] (setting [6]) and in assay [3] (setting [7]) was less than 5 µM throughout.
With `CN1CCN(C(=O)c2ccc(-c3cc(F)cc4cnc(Nc5ccc(S(N)(=O)=O)cc5)nc34)cc2)CC1` [Compound 915, 4-(6-fluoro-8-(4-(4-methylpiperazine-1-carbonyl)phenyl)quinazolin-2-ylamino)benzenesulfonamide], the IC50 in assay [1] is less than 5 µM. The EC50 is less than 5 µM in assay [2] (A2780 cells) and less than 5 µM in assay [3] (PC-3, PC3 cells).
In the case of `CC(C)N1CCN(Cc2cccc3cnc(Nc4ccc(S(N)(=O)=O)cc4)nc23)CC1` [Compound 925, 4-(8-((4-isopropylpiperazin-1-yl)methyl)quinazolin-2-ylamino)benzenesulfonamide], the IC50 in assay [1] was less than 5 µM. Also, the EC50 in assay [2] (A2780 cells) was less than 5 µM; in assay [3] (PC-3, PC3 cells) it was 5 to 10 µM.
